Reference: ChEMBL document CHEMBL1156596, “Overcoming undesirable CYP1A2 inhibition of pyridylnaphthalene-type aldosterone synthase inhibitors: influence of heteroaryl derivatization on potency and selectivity” (J Med Chem, 2008)

How the values were obtained:
[1] = species on record: Homo sapiens; assay: Selectivity ratio of IC50 for human CYP11B1 to IC50 for human CYP11B2
[2] = molecular target: T1, CYP1A2 (Homo sapiens, UniProt P05177); assay: Inhibition of human recombinant CYP1A2 expressed in insect microsomes at 2 uM; format: ADME, Microsome
T1 sequence (P05177 whole entry): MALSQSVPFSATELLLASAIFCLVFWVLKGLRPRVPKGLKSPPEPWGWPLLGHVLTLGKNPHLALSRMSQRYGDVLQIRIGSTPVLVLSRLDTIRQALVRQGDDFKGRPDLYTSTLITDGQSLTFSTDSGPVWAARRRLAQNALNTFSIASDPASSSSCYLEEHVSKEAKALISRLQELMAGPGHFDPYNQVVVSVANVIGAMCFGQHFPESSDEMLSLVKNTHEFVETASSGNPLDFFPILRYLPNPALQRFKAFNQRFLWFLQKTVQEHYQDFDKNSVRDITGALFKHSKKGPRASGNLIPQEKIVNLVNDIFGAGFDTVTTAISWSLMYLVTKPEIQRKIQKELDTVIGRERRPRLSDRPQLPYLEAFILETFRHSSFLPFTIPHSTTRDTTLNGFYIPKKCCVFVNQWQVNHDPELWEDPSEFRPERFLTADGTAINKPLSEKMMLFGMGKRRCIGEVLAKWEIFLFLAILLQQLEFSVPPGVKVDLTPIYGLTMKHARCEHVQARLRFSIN

[3] = molecular target: T2, CYP19 (aromatase) (Homo sapiens, UniProt P11511); assay: Inhibition of human placental CYP19 at 500 nM
T2 sequence (P11511 whole entry): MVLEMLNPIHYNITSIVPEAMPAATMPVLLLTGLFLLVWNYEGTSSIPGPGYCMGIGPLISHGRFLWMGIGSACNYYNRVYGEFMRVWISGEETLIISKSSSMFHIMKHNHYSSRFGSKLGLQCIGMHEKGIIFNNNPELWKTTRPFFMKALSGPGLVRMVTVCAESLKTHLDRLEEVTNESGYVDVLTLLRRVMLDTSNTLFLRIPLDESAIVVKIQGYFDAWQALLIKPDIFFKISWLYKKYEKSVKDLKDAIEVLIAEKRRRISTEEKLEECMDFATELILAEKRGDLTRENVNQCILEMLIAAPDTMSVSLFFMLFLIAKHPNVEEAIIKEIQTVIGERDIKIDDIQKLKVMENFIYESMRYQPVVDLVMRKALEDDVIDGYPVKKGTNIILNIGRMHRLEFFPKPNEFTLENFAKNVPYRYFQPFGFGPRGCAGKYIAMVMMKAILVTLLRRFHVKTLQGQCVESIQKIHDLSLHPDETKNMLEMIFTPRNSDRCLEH

[4] = molecular target: T3, Cytochrome P450 2B6 (Homo sapiens, UniProt P20813); assay: Inhibition of human recombinant CYP2B6 expressed in insect microsomes; format: ADME, Microsome
T3 sequence (P20813 whole entry): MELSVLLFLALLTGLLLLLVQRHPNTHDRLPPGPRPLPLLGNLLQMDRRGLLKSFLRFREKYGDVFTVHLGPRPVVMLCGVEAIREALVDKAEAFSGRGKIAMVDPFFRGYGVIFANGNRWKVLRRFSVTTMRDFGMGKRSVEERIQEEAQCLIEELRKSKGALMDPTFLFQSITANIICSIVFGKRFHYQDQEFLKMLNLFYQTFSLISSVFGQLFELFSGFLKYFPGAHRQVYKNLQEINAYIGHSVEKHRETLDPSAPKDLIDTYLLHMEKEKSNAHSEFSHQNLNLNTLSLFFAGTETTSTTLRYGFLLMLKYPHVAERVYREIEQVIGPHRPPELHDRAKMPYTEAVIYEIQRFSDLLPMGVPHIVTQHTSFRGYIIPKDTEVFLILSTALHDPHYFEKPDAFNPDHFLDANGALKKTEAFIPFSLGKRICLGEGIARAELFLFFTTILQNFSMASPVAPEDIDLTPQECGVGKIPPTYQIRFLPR

[5] = molecular target: Cytochrome P450 2C19 (Homo sapiens, UniProt P33261); assay: Inhibition of human recombinant CYP2C19 expressed in insect microsomes; format: ADME, Microsome
[6] = molecular target: Cytochrome P450 2D6 (Homo sapiens, UniProt P10635); assay: Inhibition of human recombinant CYP2D6 expressed in insect microsomes; format: ADME, Microsome
[7] = molecular target: Cytochrome P450 3A4 (Homo sapiens, UniProt P08684); assay: Inhibition of human recombinant CYP3A4 expressed in insect microsomes; format: ADME, Microsome
[8] = Terminal half life in Wistar rat at 5 mg/kg, po; format: ADME, organism-based; design: dose 5 mg/kg, route oral; settings: in vivo
[9] = Plasma concentration in Wistar rat plasma at 5 mg/kg, po after 1 hr; format: ADME, organism-based; design: dose 5 mg/kg, route oral
[10] = Plasma concentration in Wistar rat plasma at 5 mg/kg, po after 4 hrs; format: ADME, organism-based; design: dose 5 mg/kg, route oral
[11] = Plasma concentration in Wistar rat plasma at 5 mg/kg, po after 8 hrs; format: ADME, organism-based; design: dose 5 mg/kg, route oral
[12] = Tmax in Wistar rat at 5 mg/kg, po; format: ADME, organism-based; design: dose 5 mg/kg, route oral; settings: in vivo
[13] = molecular target: T4, Cytochrome P450 11B1, mitochondrial (Homo sapiens, UniProt P15538)
T4 sequence (P15538 whole entry): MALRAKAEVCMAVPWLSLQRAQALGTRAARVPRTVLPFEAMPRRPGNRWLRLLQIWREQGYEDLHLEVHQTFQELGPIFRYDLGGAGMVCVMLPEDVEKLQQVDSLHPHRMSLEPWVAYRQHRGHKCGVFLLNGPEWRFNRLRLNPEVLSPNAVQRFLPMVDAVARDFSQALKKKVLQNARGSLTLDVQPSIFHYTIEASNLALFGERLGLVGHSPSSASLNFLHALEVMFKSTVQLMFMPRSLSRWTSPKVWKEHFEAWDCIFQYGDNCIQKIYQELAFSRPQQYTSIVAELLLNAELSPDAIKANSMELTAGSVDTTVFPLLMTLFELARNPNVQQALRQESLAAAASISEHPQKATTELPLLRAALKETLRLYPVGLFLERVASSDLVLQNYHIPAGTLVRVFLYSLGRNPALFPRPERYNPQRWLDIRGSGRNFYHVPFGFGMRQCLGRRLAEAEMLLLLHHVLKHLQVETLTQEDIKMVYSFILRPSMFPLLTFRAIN

[14] = molecular target: T5, Cytochrome P450 1A2 (Homo sapiens, UniProt P05177)
T5 sequence (P05177 whole entry): T1 sequence (P05177 whole entry)

Sequence of Cytochrome P450 3A4 (P08684 whole entry): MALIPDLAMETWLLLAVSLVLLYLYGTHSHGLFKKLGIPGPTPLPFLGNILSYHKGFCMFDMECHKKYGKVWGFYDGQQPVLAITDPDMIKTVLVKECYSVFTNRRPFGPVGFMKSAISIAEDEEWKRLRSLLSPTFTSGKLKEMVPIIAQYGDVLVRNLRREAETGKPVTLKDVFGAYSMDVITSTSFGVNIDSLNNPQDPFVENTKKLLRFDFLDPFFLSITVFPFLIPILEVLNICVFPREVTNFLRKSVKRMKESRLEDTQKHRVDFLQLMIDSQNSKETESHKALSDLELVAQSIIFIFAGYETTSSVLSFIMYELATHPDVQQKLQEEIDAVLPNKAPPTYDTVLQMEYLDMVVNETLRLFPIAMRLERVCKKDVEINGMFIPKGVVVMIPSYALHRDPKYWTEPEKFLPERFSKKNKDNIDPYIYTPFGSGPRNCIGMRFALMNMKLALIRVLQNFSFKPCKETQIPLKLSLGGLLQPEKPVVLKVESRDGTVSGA
Sequence of Cytochrome P450 2C19 (P33261 whole entry): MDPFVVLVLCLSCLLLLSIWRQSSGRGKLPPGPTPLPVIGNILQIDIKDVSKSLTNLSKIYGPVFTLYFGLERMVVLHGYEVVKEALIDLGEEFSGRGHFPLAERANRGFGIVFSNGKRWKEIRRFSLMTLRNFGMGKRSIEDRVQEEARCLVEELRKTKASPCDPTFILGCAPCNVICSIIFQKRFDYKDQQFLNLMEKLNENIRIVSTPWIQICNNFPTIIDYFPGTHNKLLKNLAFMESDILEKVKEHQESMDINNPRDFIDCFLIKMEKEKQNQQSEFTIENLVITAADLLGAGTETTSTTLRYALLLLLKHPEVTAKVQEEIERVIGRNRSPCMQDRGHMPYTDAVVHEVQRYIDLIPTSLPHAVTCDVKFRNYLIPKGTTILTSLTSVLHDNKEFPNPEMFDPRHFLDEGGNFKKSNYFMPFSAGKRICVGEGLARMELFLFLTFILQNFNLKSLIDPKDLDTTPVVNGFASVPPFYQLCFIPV
Sequence of Cytochrome P450 2D6 (P10635 whole entry): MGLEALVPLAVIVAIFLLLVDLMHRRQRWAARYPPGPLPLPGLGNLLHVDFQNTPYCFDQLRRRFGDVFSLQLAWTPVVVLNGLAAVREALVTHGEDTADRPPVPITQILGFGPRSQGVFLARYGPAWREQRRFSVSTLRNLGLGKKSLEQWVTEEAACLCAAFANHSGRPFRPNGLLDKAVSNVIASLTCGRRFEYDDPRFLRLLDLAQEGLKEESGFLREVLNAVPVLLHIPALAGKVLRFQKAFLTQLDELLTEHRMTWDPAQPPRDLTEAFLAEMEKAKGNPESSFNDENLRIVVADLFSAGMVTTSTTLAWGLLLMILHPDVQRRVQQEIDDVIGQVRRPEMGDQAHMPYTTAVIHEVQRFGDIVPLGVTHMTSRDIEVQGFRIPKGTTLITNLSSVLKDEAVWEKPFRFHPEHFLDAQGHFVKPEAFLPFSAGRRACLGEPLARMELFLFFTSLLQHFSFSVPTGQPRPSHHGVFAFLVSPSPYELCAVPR

Ratio IC50 [1]: 112 | inhibition at 2 µM [2]: 57% | inhibition at 0.5 µM [3]: 7% | IC50 [4]: 16.5 µM | IC50 [5]: 3.54 µM | IC50 [6]: 33.1 µM | IC50 [7]: 3.54 µM | half-life [8]: 3.2 h | concentration at 1 h [9]: 34.9 ng/mL | concentration at 4 h [10]: 76.3 ng/mL | concentration at 8 h [11]: 34.6 ng/mL | Tmax [12]: 6 h | IC50 [13]: 0.067 µM | IC50 [14]: 1.62 µM
SMILES: COc1ccc2cc(-c3cncc4ccccc34)ccc2c1
